In brackets after ≈: the same amount, converted by molar mass.
Key:
[1] = test system: Candida albicans ATCC 10231; test: Broth microdilution MIC/MFC; format: cell-based
Method in brief: (§1)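 Two-fold dilutions in RPMI 1640 with MOPS (fungi) or Mueller-Hinton broth (bacteria), final 1000–0.488 µg/mL, inoculum 0.5 McFarland in 0.85% NaCl. MIC read spectrophotometrically; MBC/MFC as lowest concentration with no visible growth after well contents were spotted onto agar.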

[2] = test system: Candida albicans ATCC 2091; test: Broth microdilution MIC/MFC; format: cell-based
Method in brief: as §1

[3] = test system: Candida glabrata ATCC 90030; test: Broth microdilution MIC/MFC; format: cell-based; conditions: Nakaseomyces glabratus
Method in brief: as §1

[4] = test system: Candida krusei ATCC 14243; test: Broth microdilution MIC/MFC; format: cell-based; conditions: Pichia kudriavzevii
Method in brief: as §1

[5] = test system: Candida parapsilosis ATCC 22019; test: Broth microdilution MIC/MFC; format: cell-based; conditions: Lodderomyces parapsilosis
Method in brief: as §1

[6] = test system: Gram-positive bacteria; test: Broth microdilution, summary over reference Gram-positive bacteria; format: cell-based; conditions: reference Gram-positive bacteria / studied bacteria
Method in brief: as §1

[7] = test system: Candida spp.; test: Broth microdilution, summary over reference yeasts; format: cell-based; conditions: range over the reference Candida spp. strains
Text: Procedures of in vitro antimicrobial assays are described in Supplementary Materials.
2. Microbiology – in vitro antimicrobial activity assays […]
using the broth microdilution method according to the European Committee on Antimicrobial Susceptibility Testing (EUCAST) and Clinical and Laboratory Standards Institute guidelines against a panel of reference and clinical or saprophytic strains of mi croorganisms, including the Gram-positive bacteria: Staphylococcus aureus ATCC 43300 (Methi-cillin Resistant S. aureus – MRSA), Staphylococcus aureus ATCC 29213 (Methicillin Susceptible S. aureus – MSSA), Staph-ylococcus epidermidis ATCC 12228, Micrococcus luteus ATCC 10240, Bacillus subtilis ATCC 6633 and Bacillus cereus ATCC 10876), Gram-negative bacteria: Bordetella bronchiseptica ATCC 4617, Escherichia coli ATCC 25922, Klebsiella pneumoniae ATCC 13883, Proteus mirabilis ATCC 12453, Salmonella typhimurium ATCC 14028 and Pseudomonas aeruginosa ATCC 9027, and fungi belonging to yeasts: Candida albicans ATCC 10231, Candida albicans ATCC 2091, Candida parapsilosis ATCC 22019, Candida glabrata ATCC 90030 and Candida krusei ATCC 14243. The microorganisms belonging to ATCC originated from American Type Culture Collection, routinely used for the evaluation of antimicrobials. All the used microbial cultures were first subcultured on nutrient agar or Sabouraud agar at 35°C for 18-24 h or 30°C for 24-48 h for bacteria […]
The surface of Mueller-Hinton agar (for bacteria) and RPMI 1640 with MOPS (for fungi) were inoculated with the suspensions of bacterial or fungal species. Microbial suspensions were prepared in sterile saline with an optical density of McFarland standard scale 0.5. The samples containing the compounds were dissolved in dimethyl sulfoxide (DMSO).
Furthermore, the bacterial and fungal suspensions put onto the Petri dishes with solid media containing 2 mg/mL of the tested compounds followed were incubated at 37°C for 24h and 30°C for 48h for bacteria and fungi, respectively.
The inhibition of microbial growth was estimated comparing with a control culture prepared without any tested sam- […]
antifungal compounds, respectively.
Subsequently, MIC (Minimal Inhibitory Concentration) of the compounds was examined by the microdilution broth method, using their two-fold dilutions in Mueller-Hinton broth (for bacteria) and RPMI 1640 broth with MOPS (for fungi) prepared in the 96-well polystyrene plates. The final concentrations of the compounds ranged from 1000 to 0.488 µg/mL. Microbial suspensions were prepared in 0.85% NaCl with an optical density of 0.5 McFarland standard. Next each bacterial or fungal suspension was added per each well containing broth and various concentrations of the exam-ined compounds. After incubation, the MIC was assessed spectrophotometrically as the lowest concentration of the […]
Appropriate DMSO, growth and sterile controls were carried out. The medium with no tested substances was used as a control The MBC (Minimal Bactericidal Concentration) and MFC (Minimal Fungicidal Concentration) are defined as the lowest concentration of the compounds that is required to kill a particular bacterial or fungal species. The MBC/MFC was determined by removing the culture used for the MIC determination from each well and spotted onto the appro-priate agar medium. The plates were incubated under appropriate conditions for bacteria and fungi. The lowest com-pounds concentration with no visible growth observed was assessed as a bactericidal/fungicidal concentration. All the experiments were repeated three times and the representative data are presented.
1. European Committee for Antimicrobial Susceptibility Testing (EUCAST) Determination of minimum inhibitory con-centrations (MICs) of antibacterial agents by broth dilution. EUCAST discussion document E. Dis 5.1. Clin. Microbiol.
2. Clinical and Laboratory Standards Institute. Reference method for broth dilution antifungal susceptibility testing of […]

[8] = test system: Staphylococcus aureus ATCC 25923; test: Broth microdilution MIC/MBC; conditions: Staphylococcus aureus, ATCC25923
[9] = test system: Staphylococcus aureus ATCC 29213; test: Broth microdilution MIC/MBC; conditions: ATCC29213
[10] = test system: Staphylococcus aureus ATCC 43300; test: Broth microdilution MIC/MBC; conditions: ATCC43300 / MRSA
[11] = test system: Staphylococcus epidermidis ATCC 12228; test: Broth microdilution MIC/MBC; conditions: ATCC12228
[12] = test system: Micrococcus luteus ATCC 10240; test: Broth microdilution MIC/MBC; conditions: Micrococcus luteus, ATCC10240
[13] = test system: Bacillus subtilis ATCC 6633; test: Broth microdilution MIC/MBC; conditions: ATCC6633
[14] = test system: Bacillus cereus ATCC 10876; test: Broth microdilution MIC/MBC; conditions: Bacillus cereus, ATCC10876
[15] = test system: Bordetella bronchiseptica ATCC 4617; test: Broth microdilution MIC/MBC; conditions: ATCC4617
[16] = test system: Klebsiella pneumoniae ATCC 13883; test: Broth microdilution MIC/MBC; conditions: ATCC13883
[17] = test system: Proteus mirabilis ATCC 12453; test: Broth microdilution MIC/MBC; conditions: ATCC12453
[18] = test system: Escherichia coli ATCC 25922; test: Broth microdilution MIC/MBC; conditions: ATCC25922
[19] = test system: Salmonella typhimurium ATCC 14028; test: Broth microdilution MIC/MBC; conditions: Salmonella enterica
[20] = test system: Pseudomonas aeruginosa ATCC 9027; test: Broth microdilution MIC/MBC; conditions: ATCC9027
[21] = test system: Gram-positive bacterial strains; design: method as in doi:10.14419/ijac.v5i1.7155; conditions: mainly Gram-positive bacterial strains; cited from earlier work

O=C(N/N=C/c1cc(Br)cc(Br)c1O)c1ccc(I)cc1 [Compound 28, N-[(3,5-dibromo-2-hydroxyphenyl)methylidene]-4-iodobenzohydrazide]
MFC ([1]; ATCC10231, read-out: MFC): > 1000 µg/mL
MIC ([1]; ATCC10231, read-out: MIC): 500 µg/mL (≈ 954 µM)
MFC ([2]; ATCC2091, read-out: MFC): > 1000 µg/mL
MIC ([2]; ATCC2091, read-out: MIC): 1000 µg/mL (≈ 1910 µM)
MFC ([3]; ATCC90030, read-out: MFC): > 1000 µg/mL
MIC ([3]; ATCC90030, read-out: MIC): 1000 µg/mL (≈ 1910 µM)
MFC ([4]; ATCC14243, read-out: MFC): > 1000 µg/mL
MIC ([4]; ATCC14243, read-out: MIC): 1000 µg/mL (≈ 1910 µM)
MFC ([5]; ATCC22019, read-out: MFC): > 1000 µg/mL
MIC ([5]; ATCC22019, read-out: MIC): 500 µg/mL (≈ 954 µM)
antibacterial activity in words [6]: No antimicrobial effect
MFC [7]: > 1000 µg/mL
MIC [7]: 250 to 1000 µg/mL (≈ 477 to 1910 µM)
melting point: 210 to 211 °C
MIC [8]: > 1000 µg/mL
MIC [9]: > 1000 µg/mL
MIC [10]: > 1000 µg/mL
MIC [11]: > 1000 µg/mL
MIC [12]: > 1000 µg/mL
MIC [13]: > 1000 µg/mL
MIC [14]: > 1000 µg/mL
MIC [15]: > 1000 µg/mL
MIC [16]: > 1000 µg/mL
MIC [17]: > 1000 µg/mL
MIC [18]: > 1000 µg/mL
MIC [19]: > 1000 µg/mL
MIC [20]: > 1000 µg/mL

O=C(NN=Cc1ccc(F)cc1)c1ccccc1 [N-(4-fluorobenzylidene)benzohydrazide]
zone of bacterial growth inhibition ZOI [21]: 6–7 mm
